Assay results from patent US5593984A, “Cephalosporin derivatives” (Yuhan Corporation, priority 1992, dated 1997).
Values after ≈ are worked out from the molar mass of the structure shown.

Legend:
Assay type in all cases: cell-based
B. subtilis ATCC 6633 = assay: MIC by agar dilution, B. subtilis ATCC 6633; details: Bacillus subtilis, ATCC6633, 17 h; B. subtilis ATCC 6633; agar dilution, Mueller-Hinton agar; read-out: Minimal Inhibitory Concentration (MIC)
How it was run: (§1)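 Inoculum of 10^6 CFU per ml was spotted onto Mueller-Hinton agar plates carrying two-fold compound dilutions. Plates were held at 35°-37° C. for 17±1 hours before the minimum inhibitory concentration was recorded.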

Staph. aureus ATCC 6538P = assay: MIC by agar dilution, Staph. aureus ATCC 6538P; details: Staphylococcus aureus, ATCC6538P, 17 h; Staph. aureus ATCC 6538P; agar dilution, Mueller-Hinton agar; read-out: Minimal Inhibitory Concentration (MIC)
How it was run: as §1

Staph. aureus Smith = assay: MIC by agar dilution, Staph. aureus Smith; details: Staphylococcus aureus, 17 h, Mueller-Hinton agar, read-out: Minimal Inhibitory Concentration (MIC)
How it was run: as §1

Staph. aureus C-57 = assay: MIC by agar dilution, Staph. aureus C-57; details: Staphylococcus aureus, C57, 17 h, Mueller-Hinton agar, read-out: Minimal Inhibitory Concentration (MIC)
How it was run: as §1

Staph. aureus C-5113 = assay: MIC by agar dilution, Staph. aureus C-5113; details: Staphylococcus aureus, C5113, 17 h, Mueller-Hinton agar, read-out: Minimal Inhibitory Concentration (MIC)
How it was run: as §1

Staph. aureus C-5216 = assay: MIC by agar dilution, Staph. aureus C-5216; details: Staphylococcus aureus, C5216, 17 h, Mueller-Hinton agar, read-out: Minimal Inhibitory Concentration (MIC)
How it was run: as §1

[1] = test system: S. epidermidis ATCC 12228; assay: MIC by agar dilution, S. epidermidis ATCC 12228; details: Staphylococcus epidermidis, ATCC12228, 17 h; S. epidermidis ATCC 12228; agar dilution, Mueller-Hinton agar; read-out: Minimal Inhibitory Concentration (MIC)
How it was run: as §1

Ent. aerogenes IFO 12979 = assay: MIC by agar dilution, Ent. aerogenes IFO 12979; details: Klebsiella aerogenes, IFO12979, 17 h, Mueller-Hinton agar, read-out: Minimal Inhibitory Concentration (MIC)
How it was run: as §1

Ent. cloacae IFO 13535 = assay: MIC by agar dilution, Ent. cloacae IFO 13535; details: Enterobacter cloacae, IFO13535, 17 h; Ent. cloacae IFO 13535; agar dilution, Mueller-Hinton agar; read-out: Minimal Inhibitory Concentration (MIC)
How it was run: as §1

E. coli NIHJ JC-2 = assay: MIC by agar dilution, E. coli NIHJ JC-2; details: Escherichia coli, NIHJJC2, 17 h; E. coli NIHJ JC-2; agar dilution, Mueller-Hinton agar; read-out: Minimal Inhibitory Concentration (MIC)
How it was run: as §1

E. coli No. 29 = assay: MIC by agar dilution, E. coli No. 29; details: Escherichia coli, 17 h; E. coli No. 29; agar dilution, Mueller-Hinton agar; read-out: Minimal Inhibitory Concentration (MIC)
How it was run: as §1

E. coli DY-1 = assay: MIC by agar dilution, E. coli DY-1; details: Escherichia coli, DY1, 17 h; E. coli DY-1; agar dilution, Mueller-Hinton agar; read-out: Minimal Inhibitory Concentration (MIC)
How it was run: as §1

K. pneumoniae NCTC 9632 = assay: MIC by agar dilution, K. pneumoniae NCTC 9632; details: Klebsiella pneumoniae, NCTC9632, 17 h; K. pneumoniae NCTC 9632; agar dilution, Mueller-Hinton agar; read-out: Minimal Inhibitory Concentration (MIC)
How it was run: as §1

M. morganii DY-1 = assay: MIC by agar dilution, M. morganii DY-1; details: Morganella morganii, DY1, 17 h; M. morganii DY-1; agar dilution, Mueller-Hinton agar; read-out: Minimal Inhibitory Concentration (MIC)
How it was run: as §1

[2] = test system: Ps. aeruginosa ATCC 10145; assay: MIC by agar dilution, Ps. aeruginosa ATCC 10145; details: Pseudomonas aeruginosa, ATCC10145, 17 h, Mueller-Hinton agar, read-out: Minimal Inhibitory Concentration (MIC)
How it was run: as §1

[3] = test system: Ps. aeruginosa NCTC 10490; assay: MIC by agar dilution, Ps. aeruginosa NCTC 10490; details: Pseudomonas aeruginosa, NCTC10490, 17 h, Mueller-Hinton agar, read-out: Minimal Inhibitory Concentration (MIC)
How it was run: as §1

Ps. aeruginosa DY-2 = assay: MIC by agar dilution, Ps. aeruginosa DY-2; details: Pseudomonas aeruginosa, DY2, 17 h; Ps. aeruginosa DY-2; agar dilution, Mueller-Hinton agar; read-out: Minimal Inhibitory Concentration (MIC)
How it was run: as §1

P. vulgaris NCTC 8313 = assay: MIC by agar dilution, P. vulgaris NCTC 8313; details: Proteus vulgaris, NCTC8313, 17 h; P. vulgaris NCTC 8313; agar dilution, Mueller-Hinton agar; read-out: Minimal Inhibitory Concentration (MIC)
How it was run: as §1

Prov. stuartii IFO 12930 = assay: MIC by agar dilution, Prov. stuartii IFO 12930; details: Providencia stuartii, IFO12930, 17 h, Mueller-Hinton agar, read-out: Minimal Inhibitory Concentration (MIC)
How it was run: as §1

[4] = test system: Ser. marcescens IFO 12648; assay: MIC by agar dilution, Ser. marcescens IFO 12648; details: Serratia marcescens, IFO12648, 17 h; Ser. marcescens IFO 12648; agar dilution, Mueller-Hinton agar; read-out: Minimal Inhibitory Concentration (MIC)
How it was run: as §1

Structure (SMILES) | MIC (B. subtilis ATCC 6633) | MIC (Staph. aureus ATCC 6538P) | MIC (Staph. aureus Smith) | MIC (Staph. aureus C-57) | MIC (Staph. aureus C-5113) | MIC (Staph. aureus C-5216) | MIC [1] | MIC (Ent. aerogenes IFO 12979) | MIC (Ent. cloacae IFO 13535) | MIC (E. coli NIHJ JC-2) | MIC (E. coli No. 29) | MIC (E. coli DY-1) | MIC (K. pneumoniae NCTC 9632) | MIC (M. morganii DY-1) | MIC [2] | MIC [3] | MIC (Ps. aeruginosa DY-2) | MIC (P. vulgaris NCTC 8313) | MIC (Prov. stuartii IFO 12930) | MIC [4]
CO/N=C(\C(=O)N[C@@H]1C(=O)N2C(C(=O)[O-])=C(C[n+]3ccn4c(CO)ccc4c3C)CS[C@H]12)c1csc(N)n1 [Ex. 46, 7-β-[(Z)-2-(2-aminothiazol-4-yl)-2-methoxyiminoacetamido]-3-(6-hydroxymethyl-1-methylpyrrolo[1,2-a]pyrazinium-2-yl)methyl-3-cephem-4-carboxylate] | 0.39 µg/mL (≈ 0.699 µM) | 0.2 µg/mL (≈ 0.359 µM) | 0.78 µg/mL (≈ 1.4 µM) | 50 µg/mL (≈ 89.7 µM) | 1.56 µg/mL (≈ 2.8 µM) | 1.56 µg/mL (≈ 2.8 µM) | 0.1 µg/mL (≈ 0.179 µM) | 0.05 µg/mL (≈ 0.0897 µM) | 0.1 µg/mL (≈ 0.179 µM) | 0.05 µg/mL (≈ 0.0897 µM) | 0.025 µg/mL (≈ 0.0448 µM) | 0.025 µg/mL (≈ 0.0448 µM) | 0.05 µg/mL (≈ 0.0897 µM) | 0.1 µg/mL (≈ 0.179 µM) | 3.13 µg/mL (≈ 5.61 µM) | 0.78 µg/mL (≈ 1.4 µM) | 0.25 µg/mL (≈ 0.448 µM) | 0.05 µg/mL (≈ 0.0897 µM) | 0.012 µg/mL (≈ 0.0215 µM) | 0.05 µg/mL (≈ 0.0897 µM)
CO/N=C(\C(=O)N[C@@H]1C(=O)N2C(C(=O)[O-])=C(C[n+]3ccn4cccc4c3)CS[C@H]12)c1nc(N)sc1Cl [Ex. 47, 7-β-[(Z)-2-(2-amino-5-chlorothiazol-4-yl)-2-methoxyiminoacetamido]-3-(pyrrolo[1,2-a]pyrazinium-2-yl)methyl-3-cephem-4-carboxylate] | 0.025 µg/mL (≈ 0.0456 µM) | 0.05 µg/mL (≈ 0.0912 µM) | 0.2 µg/mL (≈ 0.365 µM) | 1.56 µg/mL (≈ 2.85 µM) | 0.2 µg/mL (≈ 0.365 µM) | 0.2 µg/mL (≈ 0.365 µM) | 0.025 µg/mL (≈ 0.0456 µM) | 0.012 µg/mL (≈ 0.0219 µM) | 0.39 µg/mL (≈ 0.712 µM) | 0.1 µg/mL (≈ 0.182 µM) | 0.05 µg/mL (≈ 0.0912 µM) | 0.012 µg/mL (≈ 0.0219 µM) | 0.05 µg/mL (≈ 0.0912 µM) | 0.05 µg/mL (≈ 0.0912 µM) | 0.78 µg/mL (≈ 1.42 µM) | 0.05 µg/mL (≈ 0.0912 µM) | 3.13 µg/mL (≈ 5.71 µM) | ≤ 0.006 µg/mL | 0.025 µg/mL (≈ 0.0456 µM) | 0.1 µg/mL (≈ 0.182 µM)
CO/N=C(\C(=O)N[C@@H]1C(=O)N2C(C(=O)[O-])=C(C[n+]3ccn4cccc4c3)CS[C@H]12)c1nsc(N)n1 [Ex. 48, 7-β-[(Z)-2-(5-amino-1,2,4-thiadiazol-3-yl)-2-methoxyiminoacetamido]-3-(pyrrolo [1,2-a]pyrazinium-2-yl)methyl-3-cephem-4-carboxylate] | 0.2 µg/mL (≈ 0.389 µM) | 0.39 µg/mL (≈ 0.758 µM) | 0.78 µg/mL (≈ 1.52 µM) | 6.25 µg/mL (≈ 12.1 µM) | 0.78 µg/mL (≈ 1.52 µM) | 0.78 µg/mL (≈ 1.52 µM) | 0.1 µg/mL (≈ 0.194 µM) | 0.012 µg/mL (≈ 0.0233 µM) | 0.025 µg/mL (≈ 0.0486 µM) | 0.012 µg/mL (≈ 0.0233 µM) | 0.012 µg/mL (≈ 0.0233 µM) | 0.025 µg/mL (≈ 0.0486 µM) | 0.025 µg/mL (≈ 0.0486 µM) | 0.05 µg/mL (≈ 0.0972 µM) | 0.39 µg/mL (≈ 0.758 µM) | 0.1 µg/mL (≈ 0.194 µM) | 0.78 µg/mL (≈ 1.52 µM) | 0.012 µg/mL (≈ 0.0233 µM) | ≤ 0.006 µg/mL | 0.025 µg/mL (≈ 0.0486 µM)
CO/N=C(\C(=O)N[C@@H]1C(=O)N2C(C(=O)[O-])=C(C[n+]3ccn4c(CO)ccc4c3)CS[C@H]12)c1nc(N)sc1Cl [Ex. 49, 7-β-[(Z)-2-(2-amino-5-chlorothiazol-4-yl)-2-methoxyiminoacetamido]-3-(6-hydroxymethylpyrrolo[1,2-a]-pyrazinium-2-yl)methyl-3-cephem-4-carboxylate] | 0.1 µg/mL (≈ 0.173 µM) | 0.2 µg/mL (≈ 0.346 µM) | 0.39 µg/mL (≈ 0.675 µM) | 1.56 µg/mL (≈ 2.7 µM) | 0.39 µg/mL (≈ 0.675 µM) | 0.78 µg/mL (≈ 1.35 µM) | 0.012 µg/mL (≈ 0.0208 µM) | 0.05 µg/mL (≈ 0.0865 µM) | 0.39 µg/mL (≈ 0.675 µM) | 0.1 µg/mL (≈ 0.173 µM) | 0.025 µg/mL (≈ 0.0433 µM) | ≤ 0.006 µg/mL | 0.1 µg/mL (≈ 0.173 µM) | 0.1 µg/mL (≈ 0.173 µM) | 1.56 µg/mL (≈ 2.7 µM) | 0.2 µg/mL (≈ 0.346 µM) | 3.13 µg/mL (≈ 5.41 µM) | 0.025 µg/mL (≈ 0.0433 µM) | ≤ 0.006 µg/mL | 0.1 µg/mL (≈ 0.173 µM)
